According to PMC10350920, “Development of a 2,4-Diaminothiazole Series for the Treatment of Human African Trypanosomiasis Highlights the Importance of Static–Cidal Screening of Analogues” (Journal of Medicinal Chemistry, 2023):

What was measured:
[1] = Mouse liver microsomal intrinsic clearance; type: in vitro ADME
Method: Test compounds (0.5 μM) were incubated with female CD1 mouse liver microsomes (Xenotech LLC; 0.5 mg mL^–1 50 mM potassium phosphate buffer, pH 7.4), and the reaction started with the addition of excess NADPH (8 mg mL^–1 50 mM potassium phosphate buffer, pH 7.4). Immediately, at 0 min, and then at 3, 6, 9, 15, and 30 min, an aliquot (50 μL) of the incubation mixture was removed and mixed with acetonitrile (100 μL) to stop the reaction. The internal standard was added to all samples, the samples were centrifuged to sediment the precipitated protein, and the plates were then sealed prior to UPLC–MS/MS analysis using a Quattro Premier XE (Waters Corporation, USA). XLfit (IDBS, UK) was used to calculate the exponential decay and consequently the rate constant (k) from the ratio of the peak area of the test compound to the internal standard at each time point. The rate of intrinsic clearance (CLint) of each test compound was then calculated using the following calculation [drawing 3] where V (mL mg^–1 protein) is the incubation volume mg^–1 protein added and the microsomal protein yield is taken as 52.5 mg protein g^–1 liver. Verapamil (0.5 μM) was used as a positive control to confirm acceptable assay performance.

[2] = Mammalian cell counter screen (MRC-5); type: cell-based, human; conditions: human, MRC-5 fibroblasts; mean values; number of replicates in parentheses
Method: (§1) Drug sensitivity assays with BSF T. b. brucei “single marker” S427 and human MRC-5 fibroblasts were conducted as previously described.[43]

human MRC-5 fibroblasts = test: Mammalian cell counter screen (MRC-5); type: cell-based; conditions: for SI: selectivity index (EC50 MRC5/EC50 T. brucei)
Method: as §1

[3] = Rat microsomal intrinsic clearance; type: in vitro ADME; conditions: second value of mouse/rat cell
[4] = test system: BSF T. b. brucei “single marker” S427; test: Drug sensitivity assay with bloodstream-form T. brucei; type: cell-based; conditions: for EC50: mean values, number of replicates in parentheses
Method: as §1

[5] = Mouse brain penetration (brain:blood ratio); type: in vivo, female NMRI mice; conditions: female, NMRI, mouse, brain and blood, 10 mg kg^–1; mice, bolus of test compound, total compound; read-out: brain/blood (B/B) ratio
Method: Medicines for HAT are required to treat both acute and chronic infections, where parasites pass through the blood/brain barrier and enter the CNS. With this in mind, mice were dosed with an […] bolus of our test compounds, and compound concentrations in blood and brain were determined by UPLC–MS/MS. […] The brain fraction unbound was 0.0063 for 16 and 0.0313 for 38. Brain penetration of the series as a whole tracked with the generally accepted rules of CNS penetration, with a lower topological PSA (TPSA) and molecular weight compounds having an increased B/B ratio (Table S2 and Figure S1). However, the link between log P and the B/B ratio was slightly less convincing. […] This difference could be explained by 18 being a substrate for the P-glycoprotein efflux pump.
Each compound was dosed as an IV bolus at 10 mg kg^–1 dissolved in 15% solutol/Milli-Q (dose volume 10 mL kg^–1) to female NMRI mice (n = 3). At 30 min following the IV bolus of the test compound, mice (n = 3/time point) were placed under terminal anesthesia with isoflurane. A blood sample was taken by cardiac puncture and added to two volumes of distilled water, and the brain was removed. […] For each mouse at each time point, the concentration in the brain (ng g^–1) was divided by the concentration in blood (ng mL^–1) to give a brain: blood ratio.

Molecule | CLint (mouse) [1] [mL·min/g] | EC50 [2] [nM] | SI (human MRC-5 fibroblasts) | CLint (rat) [3] [mL·min/g] | reduction (loss, drop off) in potency against T. brucei relative to parent analogue ([4]; SAR comparison) [fold] | EC50 ([4]; Trypanosoma brucei) [nM] | Kp at 30 min [5] | improvement in activity against T. brucei relative to parent analogue ([4]; SAR comparison) [fold] | EC50 (human MRC-5 fibroblasts; mean values, number of replicates in parentheses, read-out: MRC-5 EC50) [nM] | EC50 [4] [nM]
Nc1nc(Nc2ccc(F)c(F)c2)sc1C(=O)CCN1CCOCC1 [Compound 64, 1-(4-Amino-2-((3,4-difluorophenyl)amino)thiazol-5-yl)-3-morpholinopropan-1-one] | 1.2 | 29000 | 6 | 8.3 | > 110 | 5000 | – | – | – | –
CC1CCCN1CC(=O)c1sc(Nc2ccc(F)c(F)c2)nc1N (centres unmarked) [Compound 59, 1-(4-Amino-2-((3,4-difluorophenyl)amino)thiazol-5-yl)-2-(2-methylpyrrolidin-1-yl)ethanone] | 5.2 | > 50000 | 1000 | 3.1 | – | 50 | – | – | – | –
Nc1nc(Nc2ccc(F)c(F)c2)sc1C(=O)CN1CCCC1C(F)(F)F (centres unmarked) [Compound 60, 1-(4-Amino-2-((3,4-difluorophenyl)amino)thiazol-5-yl)-2-(2-(trifluoromethyl)pyrrolidin-1-yl)ethanone] | 26 | 32000 | 1600 | 10 | – | 20 | – | – | – | –
CC(C)C(=O)c1sc(NC2CCCCC2)nc1N [Compound 18, 1-(4-Amino-2-(cyclohexylamino)thiazol-5-yl)-2-methylpropan-1-one] | 0.5 | 10000 | 4 | – | – | 2400 | 0.06 | – | – | –
CC(C)OCC(=O)c1sc(Nc2ccc(F)c(F)c2)nc1N [Compound 42, 1-(4-Amino-2-((3,4-difluorophenyl)amino)thiazol-5-yl)-2-isopropoxyethanone] | 9.3 | > 50000 | 2500 | 3.6 | – | 20 | – | 10 | – | –
CC(OCC(=O)c1sc(Nc2ccc(F)c(F)c2)nc1N)C(F)(F)F (centres unmarked) [Compound 50, 1-(4-Amino-2-((3,4-difluorophenyl)amino)thiazol-5-yl)-2-((1,1,1-trifluoropropan-2-yl)oxy)ethanone] | 7.4 | > 50000 | 8333 | 2.9 | – | 6 | – | – | – | –
CC(OCC(=O)c1sc(Nc2ccc3c(c2)OC(F)(F)O3)nc1N)C(F)(F)F (centres unmarked) [Compound 53, 1-(4-Amino-2-((2,2-difluorobenzo[d][1,3]dioxol-5-yl)amino)thiazol-5-yl)-2-((1,1,1-trifluoropropan-2-yl)oxy)ethan-1-one] | 5 | > 50000 | 1667 | 1.2 | – | 30 | – | – | – | –
Nc1nc(Nc2ccc(F)c(F)c2)sc1C(=O)CN1CCC(F)(F)CC1 [Compound 68, 1-(4-Amino-2-((3,4-difluorophenyl)amino)thiazol-5-yl)-2-(4,4-difluoropiperidin-1-yl)ethanone] | 9.3 | 47000 | 2350 | 11 | – | 20 | – | – | – | –
CC(OCC(=O)c1sc(Nc2ccc(C(F)(F)F)cc2)nc1N)C(F)(F)F (centres unmarked) [Compound 52, 1-(4-Amino-((4-(trifluoromethyl)phenyl)amino)thiazol-5-yl)-2-((1,1,1-trifluoropropan-2-yl)oxy)ethanone] | 2.3 | 38000 | 543 | 0.5 | 10 | 70 | – | – | – | –
Nc1nc(Nc2ccc(F)c(F)c2)sc1C(=O)CN1CCCC1 [Compound 58, 1-(4-Amino-2-((3,4-difluorophenyl)amino)thiazol-5-yl)-2-(pyrrolidin-1-yl)ethanone] | 2.1 | 48000 | 533 | 2.2 | – | 90 | – | – | – | –
Nc1nc(Nc2ccc(F)c(F)c2)sc1C(=O)COC1CC(F)(F)C1(F)F (centres unmarked) [Compound 47, 1-(4-Amino-2-((3,4-difluorophenyl)amino)thiazol-5-yl)-2-(2,2,3,3-tetrafluorocyclobutoxy)ethanone] | 5.2 | 29000 | 2900 | 4.4 | – | 10 | – | – | – | –
Nc1nc(Nc2ccc(F)c(F)c2)sc1C(=O)CN1CCCC(F)(F)C1 [Compound 67, 1-(4-Amino-2-((3,4-difluorophenyl)amino)thiazol-5-yl)-2-(3,3-difluoropiperidin-1-yl)ethanone] | 33 | 5000 | 250 | 20 | – | 20 | – | – | – | –
Nc1nc(Nc2ccc(F)c(F)c2)sc1C(=O)COC1CCC1 [Compound 46, 1-(4-Amino-2-((3,4-difluorophenyl)amino)thiazol-5-yl)-2-cyclobutoxyethanone] | 9 | > 50000 | 2500 | 8.2 | – | 20 | – | – | – | –
Nc1nc(Nc2ccc(F)c(F)c2)sc1C(=O)CN1CCCCC1 [Compound 61, 1-(4-Amino-2-((3,4-difluorophenyl)amino)thiazol-5-yl)-2-(piperidin-1-yl)ethanone] | 7.7 | 49000 | 816 | 6.7 | – | 60 | – | – | – | –
1-(4-Amino-2-((3,4-difluorophenyl)amino)thiazol-5-yl)-2-((2S,6R)-2,6-dimethylmorpholino)ethanone [Compound 63] | 8.1 | – | 1000 | 4.9 | – | – | – | – | > 50000 | 50
COc1ccc(Nc2nc(N)c(C(=O)COC(C)C(F)(F)F)s2)cn1 (centres unmarked) [Compound 57, 1-(4-Amino-2-((6-methoxypyridin-3-yl)amino)thiazol-5-yl)-2-((1,1,1-trifluoropropan-2-yl)oxy)ethanone] | 9.0 | > 50000 | 714 | 2.4 | – | 70 | – | – | – | –
Nc1nc(Nc2ccc(F)c(F)c2)sc1C(=O)CN1C[C@H]2CC[C@@H](C1)O2 [Compound 66, 1-(4-Amino-2-((3,4-difluorophenyl)amino)thiazol-5-yl)-2-((1R,5S)-8-oxa-3-azabicyclo[3.2.1]octan-3-yl)ethanone] | 8.8 | > 50000 | 455 | 15.1 | – | 110 | – | – | – | –
Nc1nc(Nc2ccc(F)c(F)c2)sc1C(=O)CN1CCOCC1 [Compound 62, 1-(4-Amino-2-((3,4-difluorophenyl)amino)thiazol-5-yl)-2-morpholinoethanone] | 4.7 | > 50000 | – | 9 | – | 40 | – | – | – | –
Nc1nc(Nc2ccc(F)c(F)c2)sc1C(=O)CN1C[C@@H]2C[C@H]1CO2 [Compound 65, 1-(4-Amino-2-((3,4-difluorophenyl)amino)thiazol-5-yl)-2-((1S,4S)-2-oxa-5-azabicyclo[2.2.1]heptan-5-yl)ethanone] | 4.1 | > 50000 | 1250 | 4.9 | – | 40 | – | – | – | –
Nc1nc(NC2CCCCC2)sc1C(=O)c1cc(F)cc(F)c1 [Compound 31, (4-Amino-2-(cyclohexylamino)thiazol-5-yl)(3,5-difluorophenyl)methanone] | 3.6 | 3100 | 19 | – | – | 160 | – | – | – | –
